PMC10449633 (Nature Chemical Biology, 2023)
Read-outs that look alike come from different tables or passages of the source. Numbered stars: 1 amine (or outer) side, 2 acyl side, 3 side chain; on linkers, the order of the positions; unused ones are H or OH. Square brackets hold non-standard residues; d marks the D form. Peptide text beside a SMILES is read from it. ξ: configuration not given here. X1 = CN(C(Cc1cn(Cc2ccc(Br)cc2)c2ccccc12)C(=O)[*:2])[*:1]; ξAla(CF3) = NC(CC(F)(F)F)C(=O)O; X2 = N#CCCC(O[*:1])C(=O)[*:2]; NMeL = CN[CH](CC(C)C)C(=O)O; NMeA = CN[CH](C)C(=O)O

Columns and labels:
Sec61 [1] = target: T1, Sec61 (Homo sapiens, UniProt P61619); assay: signal peptide-GLuc (SP-GLuc) reporter panel, 89 constructs; format: cell-based; conditions: read-out: log10(IC50 8445) (converted)
T1 construct: endogenous in cells
Source text: The heat map depicts IC50 values calculated from each SP-GLuc dose–response curve. d, Arthritis was induced in BALB/c mice with antibodies specific for type II collagen (mAb) on day 0 and endotoxin on day 3. On day 4, when the disease was present in all animals, mice were randomized and treated for 2 weeks with thrice weekly (QODx3) or weekly (QW) intravenous administration of vehicle or KZR-8445 or intraperitoneal administration of dexamethasone. Clinical scores (0–4 per paw; n = 10 per group) and body weights were followed until day 14. Data are presented as mean values ± s.d. mAb, monoclonal antibody. Source data
To investigate the effects of KZR-8445 on secretory and membrane protein biogenesis and to establish Sec61α as the relevant target, we quantified the secretion of a doxycycline-inducible Gaussia luciferase (GLuc) reporter fused to the C-terminus of two full-length pro-inflammatory cytokines, interleukin-2 (IL-2) (which contains a cleavable signal peptide) and tumor necrosis factor-alpha (TNFα) (which contains an N-terminal transmembrane anchor). […] KZR-8445 is structurally related to CT8, which discriminates among Sec61 clients based largely on their N-terminal signal peptide. […] We also directly compared KZR-8445 to mycolactone A/B, a structurally distinct and relatively client-nonselective Sec61 inhibitor[8],[25], for their ability to discriminate between vascular cell adhesion molecule (VCAM) and preprolactin (pPL) signal peptides.
Target sequence in this assay (P61619 whole entry): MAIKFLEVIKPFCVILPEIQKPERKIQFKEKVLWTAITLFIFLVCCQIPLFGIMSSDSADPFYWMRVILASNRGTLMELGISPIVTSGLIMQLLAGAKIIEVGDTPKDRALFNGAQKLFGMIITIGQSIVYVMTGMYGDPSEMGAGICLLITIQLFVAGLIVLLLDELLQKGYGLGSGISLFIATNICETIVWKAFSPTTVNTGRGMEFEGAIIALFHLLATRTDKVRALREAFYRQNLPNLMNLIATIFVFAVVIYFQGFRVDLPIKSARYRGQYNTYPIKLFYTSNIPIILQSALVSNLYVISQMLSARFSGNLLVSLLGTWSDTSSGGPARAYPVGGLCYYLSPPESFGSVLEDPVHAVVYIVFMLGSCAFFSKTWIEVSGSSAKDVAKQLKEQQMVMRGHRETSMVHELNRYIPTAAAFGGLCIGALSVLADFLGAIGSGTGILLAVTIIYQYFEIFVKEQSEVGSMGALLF
Target sequence in this assay (P60059 whole entry, further chain): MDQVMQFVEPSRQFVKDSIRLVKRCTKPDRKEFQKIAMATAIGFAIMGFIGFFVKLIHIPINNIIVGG
Target sequence in this assay (P60468 whole entry, further chain): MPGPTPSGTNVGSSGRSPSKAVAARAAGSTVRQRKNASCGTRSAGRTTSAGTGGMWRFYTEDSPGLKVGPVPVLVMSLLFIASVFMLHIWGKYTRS

Sec61 [2] = target: T1, Sec61; assay: cell-based; conditions: 24 h, range in brackets
Target sequence in this assay (P60059 whole entry): as the sequence (P60059 whole entry, further chain) above
Target sequence in this assay (P61619 whole entry): as the sequence (P61619 whole entry) above
Target sequence in this assay (P60468 whole entry, further chain): as the sequence (P60468 whole entry, further chain) above

Sec61α S82P = Sec61α S82P (Canis lupus familiaris, UniProt P38377, S82P); assay: Luciferase reporter assay in HEK293 cells expressing Sec61α S82P; design: remaining activity: dose or concentration left out as unconfirmed; conditions: HEK293, 24 h, read-out: luciferase reporter activity (% of no-drug control), S82P
Sequence of Sec61α S82P (P60468 whole entry): as the sequence (P60468 whole entry, further chain) above
Sequence of Sec61α S82P (P38377 whole entry S82P): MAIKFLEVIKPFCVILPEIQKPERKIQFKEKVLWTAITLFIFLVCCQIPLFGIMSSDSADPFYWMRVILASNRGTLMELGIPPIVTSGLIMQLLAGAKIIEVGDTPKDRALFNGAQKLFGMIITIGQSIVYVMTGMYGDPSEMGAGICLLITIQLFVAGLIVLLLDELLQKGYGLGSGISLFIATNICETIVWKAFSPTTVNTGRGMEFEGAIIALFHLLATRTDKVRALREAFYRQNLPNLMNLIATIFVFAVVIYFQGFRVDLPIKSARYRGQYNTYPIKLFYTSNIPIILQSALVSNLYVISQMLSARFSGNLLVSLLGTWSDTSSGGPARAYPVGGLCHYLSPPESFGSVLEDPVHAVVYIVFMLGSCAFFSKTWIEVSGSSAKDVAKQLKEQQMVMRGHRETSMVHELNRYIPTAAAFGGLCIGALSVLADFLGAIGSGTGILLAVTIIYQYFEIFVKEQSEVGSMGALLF
Sequence of Sec61α S82P (P60059 whole entry, further chain): as the sequence (P60059 whole entry, further chain) above
Protocol: Data are mean values ± s.d. from n = 2 independent experiments.
HEK293T cells (0.3 × 10^6) were seeded per well of a six-well plate and incubated at 37 °C in 5% CO2 for 24 h to adhere. Each of the two wells was transfected with 1 µg of plasmid encoding a luciferase with the signal peptide of either VCAM1 or pPL using PEI in a 5:1 ratio, after which cells were returned to the incubator for a further 24 h. Transfected cells were then resuspended following trypsinization, cell count estimated using a TC20 Automated Cell Counter (BioRad) and diluted to seed a 96-well flat-bottom plate with 1.6 × 10^4 cells per well. […] Cells were then incubated for a further 24 h, after which the luciferase-containing media were transferred to a clean 96-well plate and stored at −20 °C. Luciferase activity of the media was estimated using a Gaussia-GLOW Juice Luciferase Assay kit from PJK Biotech GmbH as per the manufacturer’s instructions. Luminescence was measured using an EnSpire Multimode plate reader (PerkinElmer). Background luminescence from media placed in a well with neither cells nor drug was subtracted from all values, and measurements were calculated as a percentage of luminescence intensity of a well expressing the appropriate luciferase construct in the absence of any drug. Curves were fitted, and IC50 values were calculated using GraphPad Prism 8.
HEK293 Flp-In T-REx cells (Thermo Fisher Scientific, R78007) were cultured in Dulbecco’s modified Eagle’s medium (Gibco) supplemented with 10% FBS (Gibco) at 37 °C in a humidified 5% CO2 atmosphere. Approximately 0.3 µg of pOG44 and 1 µg of targeting construct plasmids were mixed in 250 µl of OptiMEM (Thermo Fisher Scientific, 51985-026). A total of 3 µl (3 µg) Lipofectamine3000 transfection reagent was then added to the DNA mix and incubated at room temperature for 20 min, and the whole mixture was added to the cells. Cells were exposed to 100 µg ml^−^1 hygromycin B (Invitrogen) and 10 µg ml^−^1 blasticidin for 3–4 weeks until the appearance of resistant colonies. Colonies were expanded into T75 flasks and induced with doxycycline (Sigma-Aldrich, D9891) at a concentration of 1–5 µg ml^−^1 for 48 h. Cells were collected, and total RNA was extracted followed by cDNA amplification and sequencing of Sec61 with gene-specific PCR primers to confirm. Cells were then used for the luciferase reporter assays as above.
Data are mean values ± SD and are representative of n = 2 independent experiments.

Question: With `CC(C)CC1NC(=O)C(Cc2cn(Cc3ccc(Br)cc3)c3ccccc23)N(C)C(=O)C(CC(F)(F)F)NC(=O)C(CC(C)C)N(C)C(=O)C(CC(F)(F)F)NC(=O)C(CCC#N)OC(=O)C(C)N(C)C1=O` (centres unmarked) [KZR-8445] (cyclo([X1]L[NMeA][X2][ξAla(CF3)][NMeL][ξAla(CF3)]); configuration not given here) as the compound, how does the IC50 (Sec61 [1]; IL15 SP-GLuc) read?
Answer: 116 nM

Question: What about the IC50 (Sec61 [1]; IL17A SP-GLuc) of the same compound?
Answer: 318 nM

Question: What about the IC50 (Sec61 [1]; IL17F SP-GLuc) of the same compound?
Answer: 228 nM

Question: What about the IC50 (Sec61 [1]; IL17RA SP-GLuc) of the same compound?
Answer: 408 nM

Question: What about the IC50 (Sec61 [1]; IL23A SP-GLuc) of the same compound?
Answer: 425 nM

Question: And the IC50 (Sec61 [1]; IL23R SP-GLuc)?
Answer: 366 nM

Question: What about the IC50 (Sec61 [1]; ITGA3 SP-GLuc) of the same compound?
Answer: 18300 nM

Question: And the IC50 (Sec61 [1]; ITGB1 SP-GLuc)?
Answer: > 25000 nM

Question: What about the IC50 (Sec61 [1]; ITGB3 SP-GLuc) of the same compound?
Answer: 106 nM

Question: And the IC50 (Sec61 [1]; ITGB5 SP-GLuc)?
Answer: 89.1 nM

Question: And the IC50 (Sec61 [1]; ITGB7 SP-GLuc)?
Answer: 228 nM

Question: And the IC50 (Sec61 [1]; JTB SP-GLuc)?
Answer: 25.5 nM

Question: And the IC50 (Sec61 [1]; KRTDAP SP-GLuc)?
Answer: 570 nM

Question: And the IC50 (Sec61 [1]; LCN6 SP-GLuc)?
Answer: 101 nM

Question: And the IC50 (Sec61 [1]; LDLR SP-GLuc)?
Answer: 800 nM

Question: And the IC50 (Sec61 [1]; LILRB2 SP-GLuc)?
Answer: 1730 nM

Question: And the IC50 (Sec61 [1]; LRP8 SP-GLuc)?
Answer: 681 nM

Question: And the IC50 (Sec61 [1]; LRRC32 SP-GLuc)?
Answer: > 25000 nM

Question: What about the IC50 (Sec61 [1]; MASP2 SP-GLuc) of the same compound?
Answer: 127 nM

Question: And the IC50 (Sec61 [1]; METTL7a SP-GLuc)?
Answer: 6900 nM

Question: And the IC50 (Sec61 [1]; NGF SP-GLuc)?
Answer: 347 nM

Question: And the IC50 (Sec61 [1]; P3H1 SP-GLuc)?
Answer: 72.7 nM

Question: And the IC50 (Sec61 [1]; PCDHA4 SP-GLuc)?
Answer: 489 nM

Question: And the IC50 (Sec61 [1]; PCSK9 SP-GLuc)?
Answer: 1280 nM

Question: What about the IC50 (Sec61 [1]; PDCD1 SP-GLuc) of the same compound?
Answer: 37 nM

Question: What about the IC50 (Sec61 [1]; PRKCSH SP-GLuc) of the same compound?
Answer: 186 nM

Question: And the IC50 (Sec61 [1]; PSG8 SP-GLuc)?
Answer: 292 nM

Question: What about the IC50 (Sec61 [1]; SIRPA SP-GLuc) of the same compound?
Answer: 2030 nM

Question: And the IC50 (Sec61 [1]; SSR2 SP-GLuc)?
Answer: 137 nM

Question: What about the IC50 (Sec61 [1]; STAB1 SP-GLuc) of the same compound?
Answer: 670 nM

Question: And the IC50 (Sec61 [1]; SUCO SP-GLuc)?
Answer: 1450 nM

Question: And the IC50 (Sec61 [1]; TGFB1 SP-GLuc)?
Answer: 2210 nM

Question: What about the IC50 (Sec61 [1]; TGFB2 SP-GLuc) of the same compound?
Answer: 187 nM

Question: And the IC50 (Sec61 [1]; TGFB3 SP-GLuc)?
Answer: > 25000 nM

Question: What about the IC50 (Sec61 [1]; TGFBR1 SP-GLuc) of the same compound?
Answer: 134 nM

Question: And the IC50 (Sec61 [1]; TIGIT SP-GLuc)?
Answer: 590 nM

Question: What about the IC50 (Sec61 [1]; TMED10 SP-GLuc) of the same compound?
Answer: 462 nM

Question: What about the IC50 (Sec61 [1]; UCN SP-GLuc) of the same compound?
Answer: 5900 nM

Question: And the IC50 (Sec61 [2]; HER3 signal peptide-GLuc, read-out: IC50 (nM) HER3)?
Answer: 72 nM

Question: What about the IC50 (Sec61 [2]; PD1 signal peptide-GLuc, read-out: IC50 (nM) PD1) of the same compound?
Answer: 32 nM

Question: And the IC50 (Sec61 [2]; full-length IL-2-GLuc, read-out: IC50 (nM) IL-2)?
Answer: 84 nM

Question: And the IC50 (Sec61 [2]; full-length TNFα-GLuc, read-out: IC50 (nM) TNFα)?
Answer: 40 nM

Question: What about the IC50 (Sec61 [2]; prolactin signal peptide-GLuc, read-out: IC50 (nM) Prolactin) of the same compound?
Answer: 1070 nM

Question: What about the remaining activity at 0.00018303 µM (Sec61α S82P; Drug nM (log10) 0.18303) of the same compound?
Answer: 99%

Question: And the remaining activity at 0.000660151 µM (Sec61α S82P; Drug nM (log10) 0.660151)?
Answer: 80.3%

Question: And the remaining activity at 0.00113727 µM (Sec61α S82P; Drug nM (log10) 1.13727)?
Answer: 73.5%

Question: And the remaining activity (Sec61α S82P; Drug nM (log10) 1.61439)?
Answer: 47.5%

Question: And the remaining activity (Sec61α S82P; Drug nM (log10) 2.09151)?
Answer: 22.4%

Question: And the remaining activity (Sec61α S82P; Drug nM (log10) 2.56864)?
Answer: 10.1%

Question: And the remaining activity (Sec61α S82P; Drug nM (log10) 3.04576)?
Answer: 4.21%

Question: What about the remaining activity (Sec61α S82P; Drug nM (log10) 3.52288) of the same compound?
Answer: 2.82%

Question: What about the remaining activity at 0.004 µM (Sec61α S82P; Drug nM (log10) 4) of the same compound?
Answer: 3.25%

Question: And the remaining activity at 0.00050805 µM (Sec61α S82P; Drug nM (log10) -0.29409)?
Answer: 102%
